# Source: patent US20130157954A1, “METHODS FOR TREATMENT OR PROPHYLAXIS OF KIDNEY OR LIVER DYSFUNCTION” (NPS PHARMACEUTICALS, INC., priority 2010, published 2013)
# Experiment: Example 1: kidney biomarkers (urea nitrogen, creatinine, GFR) in short bowel syndrome patients, every four weeks for 24 weeks; also sorted by >5% change from baseline
# Assay type: in vivo, Human
# Parameters: CREATININE (RATE BLANKED) Change from Baseline Median / GFR Median / GFR Change from Baseline Median / UREA NITROGEN Median / UREA NITROGEN Change from Baseline Median: unit not given here
# Details: 0.05 mg/kg/day
# Experimental: Human patients with short bowel syndrome were divided into three groups: a control group (16 total individuals) to receive placebo, an experimental group (35 total individuals) to receive teduglutide at 0.05 mg/kg/day throughout the study, and an experimental group (32 total individuals) to receive teduglutide at 0.1 mg/kg/day throughout the study. Patients were treated by subcutaneous injection of placebo or the appropriate dose of teduglutide. As individuals with short bowel syndrome are likely to experience associated liver and kidney disease, known biomarkers of liver and kidney function were monitored every four weeks, for 24 weeks. The liver biomarkers tested included total bilirubin, ALT and AST and ALP. The kidney biomarkers tested included urea nitrogen, creatinine and GFR. Before administration of placebo or teduglutide, diagnostic biomarker levels were tested to establish a baseline for each individual.
# To visualize the effect of GLP-2 on the levels of the diagnostic biomarkers, the average change from baseline was calculated for the placebo and teduglutide treated groups for each visit after a baseline was established. The average change from baseline of each group is depicted in FIGS. 1-7. The numerical figures for each diagnostic biomarker at each time point are depicted in Table 1.
# The raw data for this sorting is reproduced in Table 2 below.
compound,measurement,setting,value
CC[C@H](C)[C@H](NC(=O)[C@H](Cc1ccccc1)NC(=O)[C@H](CC(=O)O)NC(=O)[C@H](CCCNC(=N)N)NC(=O)[C@H](C)NC(=O)[C@H](C)NC(=O)[C@H](CC(C)C)NC(=O)[C@H](CC(N)=O)NC(=O)[C@H](CC(=O)O)NC(=O)[C@H](CC(C)C)NC(=O)[C@@H](NC(=O)[C@@H](NC(=O)[C@H](CC(N)=O)NC(=O)[C@H](CCSC)NC(=O)[C@H](CCC(=O)O)NC(=O)[C@H](CC(=O)O)NC(=O)[C@H](CO)NC(=O)[C@H](Cc1ccccc1)NC(=O)[C@H](CO)NC(=O)CNC(=O)[C@H](CC(=O)O)NC(=O)CNC(=O)[C@@H](N)Cc1c[nH]cn1)[C@@H](C)O)[C@@H](C)CC)C(=O)N[C@@H](CC(N)=O)C(=O)N[C@@H](Cc1c[nH]c2ccccc12)C(=O)N[C@@H](CC(C)C)C(=O)N[C@H](C(=O)N[C@@H](CCC(N)=O)C(=O)N[C@H](C(=O)N[C@@H](CCCCN)C(=O)N[C@H](C(=O)N[C@H](C(=O)N[C@@H](CC(=O)O)C(=O)O)[C@@H](C)O)[C@@H](C)CC)[C@@H](C)O)[C@@H](C)CC [teduglutide],CREATININE (RATE BLANKED) Change from Baseline Median,DW4,1.5
same,CREATININE (RATE BLANKED) Median,DW4,80 µmol/L
same,GFR Change from Baseline Median,DW4,−0.6
same,GFR Median,DW4,77.0
same,UREA NITROGEN Change from Baseline Median,DW4,−0.4
same,UREA NITROGEN Median,DW4,4.9
same,CREATININE (RATE BLANKED) Change from Baseline Median,DW8,0.0
same,CREATININE (RATE BLANKED) Median,DW8,71 µmol/L
same,GFR Change from Baseline Median,DW8,1.1
same,UREA NITROGEN Change from Baseline Median,DW8,−0.3
same,UREA NITROGEN Median,DW8,5.2
same,CREATININE (RATE BLANKED) Change from Baseline Median,DW12,8.0
same,CREATININE (RATE BLANKED) Median,DW12,80 µmol/L
same,GFR Change from Baseline Median,DW12,−5.0
same,UREA NITROGEN Change from Baseline Median,DW12,−0.5
same,UREA NITROGEN Median,DW12,4.4
same,CREATININE (RATE BLANKED) Change from Baseline Median,DW16,0.0
same,CREATININE (RATE BLANKED) Median,DW16,79 µmol/L
same,GFR Change from Baseline Median,DW16,0.9
same,UREA NITROGEN Change from Baseline Median,DW16,−0.3
same,UREA NITROGEN Median,DW16,4.4
same,CREATININE (RATE BLANKED) Change from Baseline Median,DW20,0.0
same,GFR Change from Baseline Median,DW20,0.9
same,GFR Median,DW20,74.0
same,UREA NITROGEN Change from Baseline Median,DW20,−0.3
same,UREA NITROGEN Median,DW20,5.2
same,CREATININE (RATE BLANKED) Change from Baseline Median,DW 24,−0.5
same,CREATININE (RATE BLANKED) Median,DW 24,80 µmol/L
same,GFR Change from Baseline Median,DW 24,1.7
same,UREA NITROGEN Change from Baseline Median,DW 24,−0.7
same,UREA NITROGEN Median,DW 24,4.9
same,"CREATININE (RATE BLANKED) change from baseline <−5%, number of patients",week 4,7
same,"CREATININE (RATE BLANKED) change from baseline <−5%, percent of patients",week 4,(20.0%)
same,"CREATININE (RATE BLANKED) change from baseline >5%, number of patients",week 4,14
same,"CREATININE (RATE BLANKED) change from baseline >5%, percent of patients",week 4,(40.0%)
same,"CREATININE (RATE BLANKED) change from baseline −5% <= and <=5%, number of patients",week 4,9
same,"CREATININE (RATE BLANKED) change from baseline −5% <= and <=5%, percent of patients",week 4,(25.7%)
same,"GFR change from baseline <−5%, number of patients",week 4,13
same,"GFR change from baseline <−5%, percent of patients",week 4,(37.1%)
same,"GFR change from baseline >5%, number of patients",week 4,8
same,"GFR change from baseline >5%, percent of patients",week 4,(22.9%)
same,"GFR change from baseline −5% <= and <=5%, number of patients",week 4,9
same,"GFR change from baseline −5% <= and <=5%, percent of patients",week 4,(25.7%)
same,"UREA NITROGEN change from baseline <−5%, number of patients",week 4,16
same,"UREA NITROGEN change from baseline <−5%, percent of patients",week 4,(45.7%)
same,"UREA NITROGEN change from baseline >5%, number of patients",week 4,7
same,"UREA NITROGEN change from baseline >5%, percent of patients",week 4,(20.0%)
same,"UREA NITROGEN change from baseline −5% <= and <=5%, number of patients",week 4,7
same,"UREA NITROGEN change from baseline −5% <= and <=5%, percent of patients",week 4,(20.0%)
same,"CREATININE (RATE BLANKED) change from baseline <−5%, number of patients",week 8,11
same,"CREATININE (RATE BLANKED) change from baseline <−5%, percent of patients",week 8,(31.4%)
same,"CREATININE (RATE BLANKED) change from baseline >5%, number of patients",week 8,10
same,"CREATININE (RATE BLANKED) change from baseline >5%, percent of patients",week 8,(28.6%)
same,"CREATININE (RATE BLANKED) change from baseline −5% <= and <=5%, number of patients",week 8,8
same,"CREATININE (RATE BLANKED) change from baseline −5% <= and <=5%, percent of patients",week 8,(22.9%)
same,"GFR change from baseline <−5%, number of patients",week 8,9
same,"GFR change from baseline <−5%, percent of patients",week 8,(25.7%)
same,"GFR change from baseline >5%, number of patients",week 8,12
same,"GFR change from baseline >5%, percent of patients",week 8,(34.3%)
same,"GFR change from baseline −5% <= and <=5%, number of patients",week 8,7
same,"GFR change from baseline −5% <= and <=5%, percent of patients",week 8,(20.0%)
same,"UREA NITROGEN change from baseline <−5%, number of patients",week 8,14
same,"UREA NITROGEN change from baseline <−5%, percent of patients",week 8,(40.0%)
same,"UREA NITROGEN change from baseline >5%, number of patients",week 8,10
same,"UREA NITROGEN change from baseline >5%, percent of patients",week 8,(28.6%)
same,"UREA NITROGEN change from baseline −5% <= and <=5%, number of patients",week 8,5
same,"UREA NITROGEN change from baseline −5% <= and <=5%, percent of patients",week 8,(14.3%)
same,"CREATININE (RATE BLANKED) change from baseline <−5%, number of patients",week 12,7
same,"CREATININE (RATE BLANKED) change from baseline <−5%, percent of patients",week 12,(20.0%)
